Entries after “also recorded” stand apart in the source; their conditions may differ. Marks after values point to notes of the source that are not given here.
Assays:
Kunming mice [1] = assay: Acetic acid-induced abdominal writhing test in mice; format: in vivo; settings: 1 h before 0.7% acetic acid i.p.
Procedure: Acetic Acid-Induced Abdominal Writhing Test in Mice
Kunming mice, SPF KM mice purchased from […] SLAC LABORATORY ANIMAL CO. LTD and kept in normal environment.
(§1) 2. Modes of Administration
The compounds were dissolved in water for injection at a concentration of 4 mg/ml, 2 mg/ml and 1 mg/ml and were given intragastrically to animals.
(§2) Three different doses (10, 20, and 40 mg/kg) were administered to the test groups.
Aspirin was used as a positive control and acetic acid writhing test was used.
30 mice (half male and half female) weighing 18-23 g were divided into five groups, including negative control group, positive control group, low dose group, medium dose group and high dose group:
Mice in test group received test drug (10 mg/kg, 20 mg/kg, 40 mg/kg) via intragastric administration. Negative control group received physiological saline (20 ml/kg) via oral administration. Positive control group received aspirin (200 mg/kg) via oral administration. One hour later, each group received 0.7% acetic acid 10 ml/kg intraperitoneally. Five minutes later, the number of writhes was counted within the subsequent 15 min period; inhibition percentage of writhing response in each test group was calculated by the following equation: […]

Kunming mice [2] = assay: Hot-plate test in mice; format: in vivo; settings: 1 h post dose, hot plate 55° C.
Procedure: Kunming mice, SPF KM mice were purchased from […] SLAC LABORATORY ANIMAL CO. LTD and kept in normal environment.
as §1
The compounds were dissolved in water for injection at a concentration of 4 mg/ml, 2 mg/ml and 1 mg/ml and were given subcutaneously to animals.
as §2
Morphine was used as a positive control and hot plate test was used.
30-40 mice (half male and half female) weighing 18-23 g were used. First, each mouse was placed on a hot plat at 55° C. to determine basic pain threshold for 2-3 times. Those animals with basic pain threshold of 5-30 s were qualified, unqualified mice were not used. 30 qualified mice were divided into five groups, including negative control group, positive control group, low-dose group, medium-dose group and high-dose group:
Mice in test groups received test sample solution (10 mg/kg, 20 mg/kg, 40 mg/kg) via subcutaneous injection in the neck. Positive control group received subcutaneous injection of morphine (2 mg/kg). One hour later, pain threshold values were determined for mice in each group as post-drug pain threshold. Percentage increase in pain threshold was calculated according to the following equation: […]

[3] = system: Salmonella typhimurium histidine auxotroph mutants TA97, TA98, TA100 and TA102; format: cell-based
Procedure: Bacterial Reverse Mutation Test on I-20
Bacterial reverse mutation test on compound I-20 was performed on Salmonella typhimurium histidine auxotroph mutants TA97, TA98, TA100 and TA102 (purchased from MolTox company) using conventional procedures of Ames test.
Observation period: colony counting was done 48 hours after cultivation at 37° C.
Drug solutions with different concentrations were prepared with double distilled water, and the doses were 5, 50, 500, 1000, 5000 μg/plate.
Direct effect of the test drug in the absence of metabolic activity was determined by standard plate incorporation assay. The composition of the test top layer was: 2.0 ml top layer, 0.1 ml drug solution, 0.1 ml bacteria solution and 0.5 ml phosphate buffer.
Pre-incubation was used in the determination of the drug's mutagenic effect in the presence of metabolic activity. The composition of the test top layer is: 2.0 ml top layer, 0.1 ml drug solution, 0.1 ml bacteria solution and 0.5 ml S9 mix.
The resulting drug solution, bacterial solution and S9 mix were first incubated at 35° C. for 30 min while shaking, and then tested according to standard plate incorporation assay. Each dose was tested in three plates, each mutant was tested in the absence or presence of metabolic activity (−S9 or +S9) and repeated twice, the number of revertant colonies was calculated as x±SD.
Results: the test included two parts, −S9 and +S9. […] Other doses had no bacteristatic effect to all strains, and the background growth was good.

[4] = molecular target: opioid receptor subtype δ (Homo sapiens, UniProt P41143); assay: Competitive radioligand binding ([3H]Diprenorphine), opioid receptor subtype δ
Chain of opioid receptor subtype δ (P41143 whole entry): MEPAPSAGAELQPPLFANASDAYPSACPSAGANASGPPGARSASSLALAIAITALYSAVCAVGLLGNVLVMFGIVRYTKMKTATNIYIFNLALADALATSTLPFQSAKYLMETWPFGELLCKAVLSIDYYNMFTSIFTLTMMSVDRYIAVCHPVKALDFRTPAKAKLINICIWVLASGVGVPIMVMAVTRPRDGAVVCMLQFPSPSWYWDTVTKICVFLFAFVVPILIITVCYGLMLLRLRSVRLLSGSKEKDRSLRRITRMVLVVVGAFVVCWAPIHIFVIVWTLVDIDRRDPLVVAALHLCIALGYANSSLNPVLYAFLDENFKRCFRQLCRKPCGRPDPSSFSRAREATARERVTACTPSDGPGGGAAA
Procedure: (§3) Competitive Binding Between the Compounds and Opioid Receptor Subtypes μ, δ, κ
(§4) The respective test compounds were added to the sample tube (final concentration of 10^−5M), incubated at 37° C. for 30 min and placed in ice bath to terminate the reaction. The reaction mixture was filtered through GF/C(Whatman) glass fiber filter by vacuum filtration on a Millipore sample collector. The filter was washed three times with 50 mM Tris-HCl (pH7.4), each with 4 ml; dried and transferred into a 0.5 ml Eppendorf tube, in which 0.5 ml lipophilic scintillation fluid was added. Radioactivity was detected by a LS6500 scintillation counter. Each concentration had three duplicate test tubes and each separate test was repeated 3 to 4 times.
(§5) Specific binding CMP value for each sample tube=overall binding CPM value for each sample tube-CPM value of non-specific binding tube. [Inhibition percentage of competitive binding between the test compound and different opioid receptor subtypes (%)=(100%−specific binding (CPM value) of sample tube/specific binding (CPM value) of solvent group×100%)]
Average was taken for each test drug from three duplicate tubes; each test was repeated two or more times. Data were presented as mean±SE and statistical comparison was made by ANOVA.

in vivo = settings: mouse, po, mice
Source text: Studies of Acute Toxicity of the Compound I-1 and I-20
For statistics of 1-20, Bliss method was used (“Experimental Design and Statistical Basis for Drug Evaluation”, Changxiao Liu, Ruiyuan Su, first edition, Military Medical Science Press, 1993, 80-90).

[5] = molecular target: opioid receptor subtype κ (Homo sapiens, UniProt P41145); assay: biochemical; format: binding
Chain of opioid receptor subtype κ (P41145 whole entry): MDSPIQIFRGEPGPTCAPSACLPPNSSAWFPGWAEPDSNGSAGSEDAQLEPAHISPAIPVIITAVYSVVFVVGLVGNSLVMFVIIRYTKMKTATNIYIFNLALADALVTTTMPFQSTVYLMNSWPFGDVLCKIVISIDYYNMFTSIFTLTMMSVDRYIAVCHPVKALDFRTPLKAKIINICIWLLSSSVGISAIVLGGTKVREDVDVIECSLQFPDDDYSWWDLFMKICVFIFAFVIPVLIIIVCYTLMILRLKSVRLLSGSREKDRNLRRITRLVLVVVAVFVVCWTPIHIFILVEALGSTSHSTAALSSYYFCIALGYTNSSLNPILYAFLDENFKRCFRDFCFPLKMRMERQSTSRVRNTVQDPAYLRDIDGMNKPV
Procedure: as §3, §4, §5
(§6) Average was taken for each test drug from three duplicate tubes; each test was repeated two or more times.

[6] = molecular target: opioid receptor subtype μ (Homo sapiens, UniProt P35372); assay: biochemical; format: binding
Chain of opioid receptor subtype μ (P35372 whole entry): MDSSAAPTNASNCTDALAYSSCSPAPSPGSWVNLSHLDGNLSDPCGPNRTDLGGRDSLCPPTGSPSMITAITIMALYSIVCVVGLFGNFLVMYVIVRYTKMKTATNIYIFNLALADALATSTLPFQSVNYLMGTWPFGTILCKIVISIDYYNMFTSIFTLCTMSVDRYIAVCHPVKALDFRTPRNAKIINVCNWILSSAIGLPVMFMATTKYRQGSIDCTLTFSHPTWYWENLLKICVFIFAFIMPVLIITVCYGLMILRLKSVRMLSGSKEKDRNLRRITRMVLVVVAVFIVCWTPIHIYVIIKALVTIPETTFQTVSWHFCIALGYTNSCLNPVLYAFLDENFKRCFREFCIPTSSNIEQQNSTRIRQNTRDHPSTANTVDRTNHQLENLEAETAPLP
Procedure: as §3, §4, §5, §6

[7] = Animal model study of compound I-20 (summary statements)

COc1ccccc1N1CCN([C@H](C)[C@H](O)c2ccccc2)CC1 (racemic) [Compound I-20, (1RS,2RS)-1-phenyl-2-(4-(2-methoxyphenyl)piperazinyl)-propan-1-ol]
Inhibition percentage of writhing response (Kunming mice [1]; 10 mg/kg Ig): 46.61% | Inhibition percentage of writhing response (Kunming mice [1]; 20 mg/kg Ig): 72.03 * % | Inhibition percentage of writhing response (Kunming mice [1]; 40 mg/kg Ig): 64.41% | Percentage increase in pain threshold (Kunming mice [2]; 10 mg/kg S.c.): 63.29 * % | Percentage increase in pain threshold (Kunming mice [2]; 20 mg/kg S.c.): 80.88 * % | Percentage increase in pain threshold (Kunming mice [2]; 40 mg/kg S.c.): 186.25 ** % | Ames test result ([3]; TA97, TA98, TA100, TA102, −S9 and +S9, 5-5000 μg/plate): negative | Bacteristatic effect on test strains ([3]; TA98 in −S9 test system and TA97 in +S9 test system): bacteristatic effects | Increase in the number of revertant colonies ([3]; −S9 and +S9, 5, 50, 500, 1000, 5000 μg/plate): None of the tested dose resulted in significant increase | Affinity to opioid receptor subtype δ (in words) [4]: no obvious affinity | inhibition at 10 µM ([4]; read-out: Inhibition percentage of competitive binding, δ): 0% | LD50 (in vivo): 674 mg/kg | Affinity to opioid receptor subtype κ (in words) [5]: no obvious affinity | inhibition at 10 µM ([5]; test concentration 10^−5 mol/L, [3H]Diprenorphine 0.4 nM, mean±SE, read-out: Inhibition percentage of competitive binding, κ): 8.9 ± 0.2% | Affinity to opioid receptor subtype μ (in words) [6]: no obvious affinity | inhibition at 10 µM ([6]; test concentration 10^−5 mol/L, [3H]Diprenorphine 0.4 nM, mean±SE, read-out: Inhibition percentage of competitive binding, μ): 13.4 ± 2.1% | Analgesic effect (in words) ([7]; animal model study): obvious analgesic effect | Potential for drug dependence ([7]; in vivo): low potential for drug dependence | Drug resistance after multiple applications ([7]; multiple applications): No drug resistance is observed | Absorption with oral administration (in words) ([7]; oral administration): well absorbed; also recorded: good absorption

— patent publication US8778948B2, “Substituted phenylpiperazinyl aralkylalcohol derivatives, pharmaceutical compositions containing such derivatives and uses thereof” (priority 2008, dated 2014)
